This note sets out measurements from a melting point compilation (Tetko et al.; mined from patent text by program, amines drawn as free bases though some values may be those of a salt).

Broadly, the melting point is the temperature of the solid-liquid transition. For `COc1ccc(C(=O)Nc2ccccc2)cc1NCc1cccc(C)c1`, the melting point was in the range of 184 to 185 °C.

With `Fc1ccc2[nH]cc(CC3C=CCN(Cc4ccccc4)C3)c2c1` (configuration not stated), the melting point was 133 to 136 °C.

On to `CC(=O)Nc1nonc1-c1nc2ccccc2n1CC(=O)c1ccc(Cl)cc1`, for which the melting point fell in the range of 202 to 205 °C.

Regarding `Cc1ccccc1Nc1nc(Cl)nc2c(C)cccc12`, the melting point was in the range of 125 to 126 °C.

For `Cc1cc(C(=O)c2ccc(C(=O)c3cc(C)c(OCC4CO4)c(C)c3)cc2)cc(C)c1OCC1CO1` (configuration not stated), the melting point lay in the range of 164 to 170 °C.

With `COC(=O)COc1cccc2c(CNC(C)=O)coc12`, the melting point was in the range of 139 to 140 °C.

Compound `Cc1nc(SCc2cc(O)nc(O)n2)sc1CC(=O)O` gave a melting point of 246 to 247 °C.

Compound `CC1(C)CC(=O)C2=C(C1)NC1=C(C(=O)CC(C)(C)C1)C2c1cccc(OCc2ccncc2)c1` displayed a melting point of 156 to 158 °C.

Turning to `CC(C)c1ccc(-n2nc(C(F)(F)F)cc2-c2ccc(S(C)(=O)=O)cc2)cc1Cl`, the melting point was in the range of 84 to 86 °C.

Regarding `N=C(NO)c1cccc2c1nc(-c1c(F)cccc1F)n2Cc1c(F)cccc1F`, the melting point lay in the range of 214 to 216 °C.

Compound `CSc1ccc(C(=O)c2c(C)cc3n2CCC3C(=O)O)n1C` (configuration not stated) gave a melting point of 182 to 184 °C.

Take `C=CCNC(=O)Nc1ccc([N+](=O)[O-])cc1O`: the melting point lay in the range of 135 to 136 °C.

As for `CCOC(=O)C(=NOC(C)C)c1csc(N)n1`, the melting point was 162 to 164 °C.

In turn, `CC(C)Oc1cc(-n2c(Cl)nc(C(F)(F)C(F)(F)F)cc2=O)c(F)cc1Cl` registered a melting point of 55 to 58 °C.

For `O=C1CSCN1CCCCN1CCN(c2ccc3ccccc3n2)CC1`, the melting point lay in the range of 105 to 107 °C.

`CCOC(=O)C1CNc2c(OC)cc(Cc3cnc(N)nc3N)c(OC)c2C1` (configuration not stated) displayed a melting point of 186 to 188 °C.

The compound `O=C(COC1CCCCCCCCCCC1)C1=C(O)CSC1=O` showed a melting point of 93 to 95 °C.

Compound `O=C(Nc1ccc(F)cc1)Nc1cccc(OCc2ccccc2)c1` came in with a melting point of 187 to 189 °C.

`Clc1ccc(-c2cn3cccc4c3c2CCC4)cc1` registered a melting point of 131 °C.

For the compound `Cc1cc(C(=O)CBr)cc(C)c1O`, the melting point is 128 to 131 °C.

In the case of `CCCCC(=N)NC(=O)Nc1ccc(Cl)c(Cl)c1`, the melting point lay within 177 to 179 °C.

For `O=C(O)c1ccc(SC(Cn2ccnc2)c2ccccc2O)cc1` (configuration not stated), the melting point was in the range of 186 to 190 °C.

In turn, `COc1ccc(C(=O)NN=Cc2ccc3ccccc3n2)cc1` returned a melting point of 217 to 218 °C.

Compound `O=C(O)C1=CC2=C(C(=O)C1)N1C=CC=CC1=CS2` returned a melting point of 222 °C.

In the case of `O=c1ccc2ccc(Br)cc2[nH]1`, the melting point came out at 295 °C.

For `CCOc1cccc(NC(=O)NS(=O)(=O)c2ccc(C)cc2)n1`, the melting point is 197 to 199 °C.

For the compound `CCOC(=O)C1(F)C(=O)NC(=O)NC1O/N=C\c1ccc(C)o1` (configuration not stated), the melting point fell in the range of 163 to 164 °C.

Take `COc1cc(OC)nc(C(=O)NS(=O)(=O)Oc2c(Cl)cccc2Cl)n1`: the melting point lay within 136 to 139 °C.

Consider `O=C(O)Cc1ccc(NC(=O)C(COC2CCCCO2)NS(=O)(=O)c2ccc(Cl)c([N+](=O)[O-])c2)cc1` (racemic), for which the melting point lay in the range of 131 to 140 °C.

Compound `O=C(NCc1ccc(Cl)cc1)c1nnc2ccc(CO)cc2c1O` displayed a melting point of 296 to 298 °C.

Compound `CCOC(=O)c1ccc(COc2cccc(NC(C)=O)c2C=O)cc1` showed a melting point of 116 to 119 °C.

Turning to `CC1CCCN(c2ccc([N+](=O)[O-])cc2C(=O)c2ccc(Cl)cc2)C1` (configuration not stated), the melting point was found to be 112 °C.

Turning to `CC1(c2ccccc2)C(=O)Nc2cc(Cl)c(Cl)cc2C1=O` (configuration not stated), the melting point lay in the range of 213 to 214 °C.

On to `COc1ccc(COc2ccc(C(=O)O)cc2OCc2ccc(OC)cc2)cc1`, for which the melting point is 171 to 172 °C.

Consider `Cc1ccc(-c2csc(C(=O)O)n2)cc1`, for which the melting point lay within 112 to 114 °C.

Turning to `CCCOc1ccc2c(c1)C(c1ccc(OC)cc1OCC(=O)O)C(C(=O)O)C2c1cc2c(cc1OC)OCO2` (configuration not stated), the melting point was in the range of 188 to 190 °C.

Compound `Nc1nccc(-c2cn(-c3ccccc3)nc2-c2ccc(F)cc2)n1` returned a melting point of 170 to 171 °C.

`Cc1c(C)c(C)c(C2C(=O)Oc3c2cc(C(C)(C)C)cc3C(C)(C)C)c(C)c1C` (configuration not stated) registered a melting point of 185 to 190 °C.

`CC(=O)OCS(=O)(=O)c1c(F)cc(-c2c(-c3ccccc3)noc2C)cc1F`: the melting point was 165 to 166 °C.

For the compound `CCc1cccc(C)c1CNc1cc(C(=O)N(C)C)cc2c1nc(COC)n2C`, the melting point was 154 °C.

Compound `CN(C)C=C(C1=NCCCS1)[N+](=O)[O-]` registered a melting point of 168 to 170 °C.

In turn, `COC(=O)CCc1ccc(N(c2ccc(-c3ccc(N(c4ccc(CCC(=O)OC)cc4)c4cccc5ccccc45)cc3)cc2)c2cccc3ccccc23)cc1` had a melting point of 117 to 120 °C.

Turning to `Cc1cccc(NC(=N)N(C)C)c1-c1ccccc1`, the melting point is 181 to 182 °C.

In turn, `CC(c1ccc2ccccc2c1)N(O)C(=O)NO` (configuration not stated) yielded a melting point of 148 to 150 °C.

`Cc1ccccc1OCC(=O)Nc1ccc(C(=O)N2CCCCc3ccccc32)cc1`: the melting point was 172 to 175 °C.

`O=C(O)c1ccc(F)nc1F` returned a melting point of 170 to 171 °C.

In turn, `COc1ccc2ccccc2c1-c1c(C)c2c(c(C)c1P(=O)(c1ccccc1)c1ccccc1)COC2` registered a melting point of 105 to 107 °C.

`COC(=O)[C@@](C)(CCC1=C(C)C(=O)C(C)=C(C)C1=O)OS(C)(=O)=O` had a melting point of 112 to 114 °C.

With `CC[C@H]1C(=O)N(S(=O)(=O)c2ccc3ccccc3c2)[C@H]2CCN(C(=O)OCc3ccccc3)[C@H]12` (relative stereo), the melting point amounted to 156 °C.

`Fc1ccc(NC(=S)NN2CC=C(c3ccccc3)CC2)cc1` returned a melting point of 192 to 194 °C.

`NC(=O)c1ccc(N)c(C(N)=O)c1` gave a melting point of 177 to 198 °C.

On to `O=C(CCc1c(C=C2C(=O)Nc3ccccc32)[nH]c2c1CCCC2)NCCN1CCOCC1`, for which the melting point was in the range of 256 to 258 °C.

Consider `Cn1cc([C@H]2CC[C@@H](N3CCN(c4cc(C=O)cc5cccnc45)CC3)CC2)c2cc(C#N)ccc21`, for which the melting point lay in the range of 172 to 174 °C.

In turn, `COCCOc1cccc2cc(-c3nnn[nH]3)c(=O)oc12` showed a melting point of 215 °C.

Take `CCCCC(CC)COc1ccc2c(c1)C(=O)c1ccc(OCC(CC)CCCC)cc1C2=O` (configuration not stated): the melting point was 49 to 51 °C.

Regarding `N#CC1=C(c2ccccc2)Nc2n[nH]cc2C1c1cccc2c1OCCC2` (configuration not stated), the melting point amounted to 255 °C.

For `CCn1ncc2c1ncc1c(OCCC(C)C)nc3ncnn3c12`, the melting point fell in the range of 140 to 142 °C.

As to `O=C(OCC(=O)c1ccccc1[N+](=O)[O-])c1ccccc1`, the melting point was 77 to 80 °C.

`OCc1nnc2n1-c1ccc(Cl)cc1C(c1ccccc1)=NC2` came in with a melting point of 204 to 206 °C.

`COc1cc(OCCN2CCOCC2)ccc1/C=C/c1cc(/C=C/c2ccc3cc[nH]c3c2)n[nH]1`: the melting point was 113 to 122 °C.

Take `Cn1nc(C(F)(F)F)c(CS(=O)(=O)C2=NOC(C)(CCl)C2)c1Cl` (configuration not stated): the melting point was 114 to 116 °C.

`CCOC(=O)c1[nH]c2cc(C(F)(F)F)ccc2c1N`: the melting point was in the range of 204 to 210 °C.

The compound `Cc1noc(C)c1-c1cn(Cc2ccccc2)c(=O)c2ccccc12` registered a melting point of 139 to 141 °C.

Turning to `CN(C)CCN(C)C(=O)Cn1c(-c2ccc(Cl)cc2)nc2cccnc21`, the melting point is 120 to 122 °C.

As for `O=C1c2c([N+](=O)[O-])cccc2S(=O)(=O)N1CCO`, the melting point was 140 to 141 °C.

In the case of `CC(C)Cn1c(CNC(=O)OC(C)(C)C)c(-c2ccccc2F)c2cc(C(N)=O)ccc2c1=O`, the melting point lay in the range of 232 to 233 °C.

The compound `COc1ccc(C(=O)c2ccccn2)c(Cl)c1Cl` displayed a melting point of 104 to 107 °C.

`Cc1nc(N2CCN(Cc3ccccc3)C2=O)sc1C(=O)O` yielded a melting point of 248 to 249 °C.

In the case of `Cc1ccc(N(c2ccc(-c3ccc(-c4ccc(N(c5ccc(C)cc5)c5ccc6c(c5)CCC6)cc4)cc3)cc2)c2ccc3c(c2)CCC3)cc1`, the melting point lay within 207 to 208 °C.

`Cc1cc2c(nc(C)n2-c2ccc(C#N)cc2)c(C)n1` showed a melting point of 260 to 262 °C.

Turning to `CC(=O)CCC1(C(C)C)Cc2cc(OCC(=O)O)c(Cl)c(Cl)c2C1=O` (configuration not stated), the melting point is 125 to 128 °C.

In the case of `CC(C)CCOc1ccc([N+](=O)[O-])cc1OCCC(C)C`, the melting point fell in the range of 44 to 47 °C.

Regarding `Nc1c(SC(F)(F)F)nc(Br)n1-c1c(Cl)cc(C(F)(F)F)cc1Cl`, the melting point was 154 °C.

With `COc1cc2nc(N3CCN(C(=O)C45CC6CC(CC(C6)C4)C5)CC3)nc(N)c2cc1OC`, the melting point lay within 237 to 240 °C.

In the case of `Cc1cc(N)cc(C)c1O`, the melting point lay within 135 to 137 °C.

For the compound `COc1ccc(C(=O)Nc2ccccc2)cc1NS(=O)(=O)c1cccc(C#N)c1`, the melting point lay in the range of 195 to 197 °C.

Regarding `COC(=O)c1ccccc1C(=O)c1ccc(N2CCC(N3C(=O)OCc4ccc(Cl)cc43)CC2)c([N+](=O)[O-])c1`, the melting point was 90 to 92 °C.

Consider `CC(=Cc1ccc(N(C)C)cc1Cl)[N+](=O)[O-]`, for which the melting point fell in the range of 93 to 94 °C.

`O=S(=O)(c1ccccc1)c1c[nH]c2ccc(N3CCN(Cc4ccccc4)CC3)nc12` had a melting point of 238 to 239 °C.

Compound `O=C(Nc1ccc(C(F)(F)F)cc1)Nc1ccc2ncccc2c1` had a melting point of 259 to 263 °C.

As for `COC(=O)c1c(C(=O)O)c(O)c2cc(OC)c(OC)c(OC)c2c1-c1cc(OC)c(OC)c(OC)c1`, the melting point was 167 to 171 °C.

`COCC(COC)(Cc1ccccc1)Cc1ccccc1`: the melting point was determined as 95 °C.

As for `N#Cc1ccc(Cc2nc3ccccc3[nH]2)cc1`, the melting point was 133 to 136 °C.

As to `N#Cc1cccc2c1C(=O)OC2O` (configuration not stated), the melting point lay within 138 to 140 °C.

`CCCCCCCCc1ccc(C(=O)C(O)c2ccccc2)cc1` (configuration not stated) registered a melting point of 65 to 70 °C.

Turning to `COC(=O)CCCNC(=O)c1cc(O)ccc1O`, the melting point was in the range of 155 to 159 °C.

Consider `COc1ccc2nc(CSc3cc(C)ccn3)[nH]c2c1`, for which the melting point is 138 to 140 °C.
